Data from patent publication US9399675B2, “Methods and compositions for diagnosing Alzheimer's disease and age-related macular degeneration” (The Board of Regents of the University of Oklahoma, priority 2007, dated 2016).

How the values were obtained:
[1] = tested on: HUVECs; assay: Flow cytometry of cell associated CAP37 in HUVECs; type: cell-based, human; conditions: 10 ng/ml TNFα, permeabilized HUVECs
Experimental: FIG. 6: Flow cytometric analysis of cell associated CAP37 in HUVECs. HUVECs were incubated 18 h in the absence (unt) or presence of 10 ng/ml TNFα (TNFα), permeabilized and labeled with antisera to human CAP37 or normal serum control. Cells were permeabilized to determine intracellular levels of CAP37. A representative histogram from two independent experiments. The shift due to FITC-staining indicates increased expression of CAP37 in TNFα stimulated cells. Also indicated is a low level of constitutive CAP37 expression (unt).
HUVECs that were serum starved for 6 h were incubated in the absence or presence of 10 ng/ml TNFα for 10 h and 18 h. Permeabilized and non-permeabilized cells were fixed and stained essentially as described by Gräbner (18). The cells were first blocked with 4% normal donkey serum (JACKSON), then incubated at 4° C. with rabbit anti-human CAP37 antisera (1:300), and followed by biotin-sp-donkey F(ab′)2 anti-rabbit IgG, (JACKSON, 1:200) at 4° C. For detection the cells were incubated with fluorescein (DTAF)-conjugated streptavidin (JACKSON) at 2 μg/ml at 4° C. Cells were analyzed by flow cytometry (FACSCALIBUR, BECTON DICKINSON, San Jose, Calif.). Unstained cells and cells stained with normal rabbit serum were included as controls.

[2] = tested on: HUVECs; assay: ELISA of released CAP37 in supernatants of HUVEC cultures; type: cell-based, human; conditions: supernatants of treated HUVEC cultures
Description: Flow cytometry confirmed the studies described in FIG. 5. TNFα treated cells that were permeabilized indicated up to a 5-fold increase of CAP37 expression over untreated cells (FIG. 6). […] To determine whether CAP37 is released from treated endothelial cells, ELISA was used to analyze supernatants from TNFα treated HUVEC cultures. Levels of released CAP37 from treated HUVECs were two-fold over untreated cells (data not shown). It was clear that the amount and proportion of CAP37 released from HUVECs was in general much less than the amount and proportion of CAP37 released from PMN (6). Almost 90% of total CAP37 is released from PMN following phagocytosis (6).

[3] = tested on: Human neuronal cells (ATCC, HCN-1A); assay: Dot blot of released CAP37 in supernatants of human neuronal cells; type: cell-based; conditions: 75 μg/ml, 12 hrs, HCN-1A neurons
Experimental: FIG. 10: Dot blot analysis of supernatants from human neuronal cells in vitro with anti-CAP37 antiserum. Top row (from left to right) consists of CAP37 standards, at 20, 10, 5 and 2.5 μg/ml. 2nd row consists of doubling dilutions of supes from β-amyloid treated neuronal cultures. Row 3 consists of doubling dilutions of supes from untreated neuronal cultures. Row 4-no antigen/control.
The expression of CAP37 in neurons was further corroborated using in vitro culture. Human neuronal cells (ATCC, HCN-1A) were cultured according to specifications, transferred to serum-free medium for 6 hr and treated with β-amyloid fragment 1-42 (75 μg/ml), control peptide 40-1 (75 μg/ml), and media for 12 hrs. Supernatants were analyzed by dot blot for presence of released CAP37 (FIG. 10) and cells stained with anti-CAP37 antiserum (FIG. 11A) and normal mouse serum (FIG. 11B) to determine cell-associated CAP37.

Row | Substance | increase of CAP37 expression over untreated cells [1] [fold] | levels of released CAP37 over untreated cells [2] | concentration of released (secreted) CAP37 in supernatants [3]
1 | TNFα | ≤ 5 | two-fold | 
2 | β-amyloid fragment 1-42: toxic 42-amino acid beta-amyloid peptide used to induce CAP37 in human neurons |  |  | approximately 2.5 μg/ml
